Here are results for five compounds from US20090221530A1, “Relaxase Modulators and Methods of Using Same” (priority 2005, published 2009).

Type in all cases: cell-based, E. coli
In one assay the test system is F+ donor cells. The assay can be described thus: microbe, parasite or virus in culture. The settings on record: for Selectivities by EC50, Transconj.: listed as vs. F+ donor cells relative to transconjugants; for 100 minute EC50 / EC50: vs. F+ donor cells; for EC50: read-out: 100 minute EC50. The source says: (§1) A 96-well fluorescence-based assay using oxygen biosensor plates (Becton Dickinson, Franklin Lakes, N.J., U.S.A.) was employed to monitor bacterial cell survival. FIG. 7 schematically illustrates the assay mechanism of action. […] In the absence of viable bacteria, however, no fluorescence emission is detected because the fluorophore is quenched by free oxygen. The assay can further be utilized to measure conjugative DNA transfer.
(§2) Relaxase-dependent cell survival was examined by placing cultures of F+/TraI+ E. coli cells (with antibiotic resistance, e.g., Ab^r1, on a non-conjugative plasmid) within wells and exposing them to putative inhibitory compounds. […] Negative controls for this assay can be F− (Ab^r2) cells and F+ cells (Ab^r1) containing either no F plasmid relaxase (TraI) gene, or a TraI harboring catalytic tyrosine to phenylalanine mutations; in both cases, these control cells should be resistant to relaxase-dependent cell toxicity. […] Fluorescence can be measured using a PHERASTAR™ fluorescence plate reader (BMG LABTECH, Offenburg, Germany) over 8 hours time.

For the next assay, the system named is transconjugants. In words: microbe, parasite or virus in culture. The settings on record: for Selectivities by EC50, Donors: listed as vs. transconjugants relative to donors.
From the text: as §1, §2

The next assay deals with F− recipient cells. In words: microbe, parasite or virus in culture. The settings on record: for Selectivities by EC50, Donors: listed as vs. F− recipient cells relative to donors; for Selectivities by EC50, Transconj.: listed as vs. F− recipient cells relative to transconjugants; for 100 minute EC50 / EC50: vs. F− recipient cells; for EC50: read-out: 100 minute EC50.
From the text: as §1, §2

The test system of a further assay is F+ or F− cells. The assay can be described thus: 24 hr. MIC bounds (turbid/clear wells). The settings on record: 8x serial dilutions, bounds identical for F+ or F− cells; for MIC: Escherichia coli.
Setting [1] is: first EC50 block, mass concentration.
The mark [2] stands for this setting: second block, mass concentration.
Setting [3] is: vs. transconjugants, first EC50 block, mass concentration.
Setting [4] is: vs. transconjugants, first EC50 block, read-out: 100 minute EC50.
Where [5] appears, read: vs. transconjugants, second block, mass concentration.
[6] abbreviates: vs. transconjugants, second block, read-out: 100 minute EC50.
[7] abbreviates: clear wells after 24 hr. incubation.
[8] abbreviates: turbid wells after 24 hr. incubation.
[9] abbreviates: Escherichia coli, 100 min, first EC50 block, mass concentration.
[10] abbreviates: Escherichia coli, 100 min, second block, mass concentration.
Where [11] appears, read: Escherichia coli, 100 min, second block.
Where [12] appears, read: Escherichia coli, 100 min, read-out: 100 minute EC50, vs. transconjugants, first EC50 block, mass concentration.
Where [13] appears, read: Escherichia coli, 100 min, read-out: 100 minute EC50, vs. transconjugants, second block.
Setting [14] is: Escherichia coli, 100 min, read-out: 100 minute EC50, vs. transconjugants, second block, mass concentration.
The mark [15] stands for this setting: Escherichia coli, 100 min, first EC50 block.
Where [16] appears, read: clear wells after 24 hr. incubation, read-out: 24 hr. MIC bounds, upper.
The mark [17] stands for this setting: turbid wells after 24 hr. incubation, read-out: 24 hr. MIC bounds, lower.

Converted amounts (≈) assume the structure as drawn. Like-named read-outs stand apart in the source and are kept apart here.

On to `COP(=O)(OC)c1ccccc1P(=O)(OC)OC` [1,2-Bis(dimethoxyphosphoryl)benzene, 1,2-bis(dimethoxyphosphoryl)benzene], for which the results for the “Selectivities by EC50, Transconj.” value in the assay on F+ donor cells (first EC50 block) and in the assay on F− recipient cells (first EC50 block) were 4.8E−03 and 1.6E+03, respectively. Moreover, the “100 minute EC50” value with F+ donor cells (setting [1]) is 0.02 µg/mL; with F+ donor cells (setting [2]) it was over 29000 µg/mL; in the assay with transconjugants (setting [3]) it was 4 µg/mL; with transconjugants (setting [5]) it was over 29000 µg/mL; in the assay with F− recipient cells (setting [1]), 7000 µg/mL; in the assay with F− recipient cells (setting [2]) it was over 29000 µg/mL. Further, the EC50 in the assay with F+ donor cells (first EC50 block) is 0.068 µM; in the assay with F+ donor cells (second block) it was over 100000 µM; in the assay with transconjugants (setting [4]) it was 14 ± 0.3 µM; in the assay on transconjugants (setting [6]), over 100000 µM; in the assay on F− recipient cells (first EC50 block), 22000 µM; with F− recipient cells (second block), over 100000 µM. In addition, the “Selectivities by EC50, Donors” value in the assay with transconjugants (first EC50 block) stood at 2.1E+02; with F− recipient cells (first EC50 block), 3.3E+05. For the same compound, in the assay with F+ or F− cells (setting [7]), the “24 hr. MIC bounds, upper” value came to 100 mM. Further, in the assay on F+ or F− cells (setting [8]), the “24 hr. MIC bounds, lower” value is reported as 12.5 mM.
Turning to `O=P(O)(O)C(Cl)(Cl)P(=O)(O)O` [Clodronate, reference compound], the EC50 in the assay with F+ donor cells (setting [9]) was found to be 1 µg/mL; in the assay on F+ donor cells (setting [10]) it was 7000 µg/mL; in the assay with F+ donor cells (setting [11]), 30000 µM; with transconjugants (Escherichia coli, 100 min, read-out: 100 minute EC50, vs. transconjugants, first EC50 block), 38 µM; in the assay with transconjugants (setting [12]), 9 µg/mL; with transconjugants (setting [13]), 5000 µM. For the same compound, the EC50 with transconjugants (setting [14]) is 1000 µg/mL; in the assay with F− recipient cells (setting [9]), 365 µg/mL; in the assay on F− recipient cells (setting [15]), 1000 µM; in the assay on F− recipient cells (setting [10]), over 24000 µg/mL; in the assay on F− recipient cells (setting [11]), over 100000 µM. Moreover, the results for the “Selectivities by EC50, Transconj.” value in the assay with F+ donor cells (first EC50 block), with F+ donor cells (second block) and with F− recipient cells (first EC50 block) were 1.1E−01, 6.1E+00 and 3.9E+01, respectively. For the same compound, the figures for the “Selectivities by EC50, Donors” value in the assay with transconjugants (first EC50 block), with transconjugants (second block) and in the assay on F− recipient cells (first EC50 block) were 9.2E+00, 1.6E−01 and 3.6E+02, respectively. The MIC in the assay on F+ or F− cells (setting [16]) is 100 mM (≈ 24500 µg/mL); in the assay on F+ or F− cells (setting [17]), 12.5 mM (≈ 3060 µg/mL).
As for `CC(O)(P(=O)(O)O)P(=O)(O)O` [Etidronate, reference compound], the EC50 in the assay with F+ donor cells (setting [9]) turned out to be 0.002 µg/mL; with F+ donor cells (setting [15]) it was 0.008 ± 0.0002 µM; in the assay with F+ donor cells (setting [10]), 4000 µg/mL; in the assay with F+ donor cells (setting [11]) it was 20000 µM; in the assay with transconjugants (setting [12]), 0.001 µg/mL; with transconjugants (setting [13]) it was 1000 µM. In addition, the EC50 with transconjugants (setting [14]) amounted to 210 µg/mL; with F− recipient cells (setting [9]) it was 67 µg/mL; in the assay with F− recipient cells (setting [15]), 327 µM; in the assay with F− recipient cells (setting [10]), 9000 µg/mL; in the assay on F− recipient cells (setting [11]), 42000 µM. For the same compound, the “Selectivities by EC50, Transconj.” value is listed as 1.4E+00 in the assay with F+ donor cells (first EC50 block), 2.0E+01 with F+ donor cells (second block), 5.9E+04 in the assay with F− recipient cells (first EC50 block) and 4.1E+01 in the assay with F− recipient cells (second block). In addition, the “Selectivities by EC50, Donors” value with transconjugants (first EC50 block) was determined as 7.3E−01; in the assay with transconjugants (second block), 5.1E−02; in the assay with F− recipient cells (first EC50 block), 4.3E+04; in the assay on F− recipient cells (second block), 2.1E+00. For the same compound, the values for the minimal inhibitory concentration (MIC) in the assay with F+ or F− cells (setting [16]) and with F+ or F− cells (setting [17]) were 12.5 mM (≈ 2580 µg/mL) and 1.56 mM (≈ 321 µg/mL), respectively.
Turning to `O=P(O)(O)CNCP(=O)(O)O` [Iminobis(methylphosphonate)], the “Selectivities by EC50, Transconj.” value was 8.4E−03 in the assay with F+ donor cells (first EC50 block) and 4.0E+03 in the assay on F− recipient cells (first EC50 block). The “100 minute EC50” value is 0.002 µg/mL in the assay with F+ donor cells (setting [1]); over 2000 µg/mL in the assay with F+ donor cells (setting [2]); 0.253 µg/mL in the assay with transconjugants (setting [3]); 2000 µg/mL in the assay on transconjugants (setting [5]); 1000 µg/mL with F− recipient cells (setting [1]); over 2000 µg/mL in the assay with F− recipient cells (setting [2]). For the same compound, the EC50 with F+ donor cells (first EC50 block) is 0.01 µM; in the assay with F+ donor cells (second block), over 10000 µM; in the assay with transconjugants (setting [4]) it was 1 µM; in the assay on transconjugants (setting [6]), 8000 ± 500 µM; with F− recipient cells (first EC50 block) it was 5000 ± 3300 µM; in the assay on F− recipient cells (second block), over 10000 µM. Also, the results for the “Selectivities by EC50, Donors” value in the assay on transconjugants (first EC50 block) and in the assay on F− recipient cells (first EC50 block) were 1.2E+02 and 4.8E+05, respectively. The “24 hr. MIC bounds, upper” value in the assay on F+ or F− cells (setting [7]) was found to be 10 mM. In addition, in the assay on F+ or F− cells (setting [8]), the “24 hr. MIC bounds, lower” value worked out at 1.25 mM.
Consider Methylenediphosphonate, for which the “Selectivities by EC50, Transconj.” value in the assay with F+ donor cells (first EC50 block) is given as 8.8E+01; with F+ donor cells (second block), 1.8E+01; with F− recipient cells (first EC50 block), 6.9E+03; in the assay with F− recipient cells (second block), 3.5E+01. Further, the “100 minute EC50” value is 1 µg/mL with F+ donor cells (setting [1]); 4000 µg/mL with F+ donor cells (setting [2]); 0.017 µg/mL with transconjugants (setting [3]); 205 µg/mL in the assay with transconjugants (setting [5]); 117 µg/mL in the assay with F− recipient cells (setting [1]); 7000 µg/mL in the assay on F− recipient cells (setting [2]). Moreover, the EC50 with F+ donor cells (first EC50 block) came to 8 µM; in the assay with F+ donor cells (second block) it was 21000 µM; in the assay with transconjugants (setting [4]), 0.096 ± 0.0123 µM; in the assay with transconjugants (setting [6]), 1000 µM; in the assay with F− recipient cells (first EC50 block), 667 ± 0.1 µM; with F− recipient cells (second block) it was 41000 µM. Also, the “Selectivities by EC50, Donors” value in the assay on transconjugants (first EC50 block) is 1.1E−02; in the assay with transconjugants (second block), 5.5E−02; with F− recipient cells (first EC50 block), 7.8E+01; in the assay with F− recipient cells (second block), 1.9E+00. The “24 hr. MIC bounds, upper” value in the assay on F+ or F− cells (setting [7]) is reported as 12.5 mM. For the same compound, the “24 hr. MIC bounds, lower” value with F+ or F− cells (setting [8]) is listed as 1.56 mM.
